Data taken from US10759813B2, “Neprilysin inhibitors” (THERAVANCE BIOPHARMA R&D IP, LLC, priority 2010, dated 2020).

molecular target: human neprilysin (EC 3.4.24.11; NEP) (Homo sapiens (Human), UniProt P08473); assay: In vitro enzyme inhibition assay at human NEP (fluorogenic peptide substrate); format: biochemical; settings: pKi values at human NEP, recombinant human NEP
In short: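 pKi derived from apparent Ki fitted as v=v0/[1+(I/K′)] to Ex320/Em405 fluorescence. Compounds (pM to 10 μM) sat with recombinant human enzyme 30 min at 37 °C before 10 μM fluorogenic Mca peptide was added in HEPES pH 7.5 buffer with 10 μM ZnSO4; 20 min reaction, acetic acid quench.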

Sequence of human neprilysin (EC 3.4.24.11; NEP) (P08473 52-750): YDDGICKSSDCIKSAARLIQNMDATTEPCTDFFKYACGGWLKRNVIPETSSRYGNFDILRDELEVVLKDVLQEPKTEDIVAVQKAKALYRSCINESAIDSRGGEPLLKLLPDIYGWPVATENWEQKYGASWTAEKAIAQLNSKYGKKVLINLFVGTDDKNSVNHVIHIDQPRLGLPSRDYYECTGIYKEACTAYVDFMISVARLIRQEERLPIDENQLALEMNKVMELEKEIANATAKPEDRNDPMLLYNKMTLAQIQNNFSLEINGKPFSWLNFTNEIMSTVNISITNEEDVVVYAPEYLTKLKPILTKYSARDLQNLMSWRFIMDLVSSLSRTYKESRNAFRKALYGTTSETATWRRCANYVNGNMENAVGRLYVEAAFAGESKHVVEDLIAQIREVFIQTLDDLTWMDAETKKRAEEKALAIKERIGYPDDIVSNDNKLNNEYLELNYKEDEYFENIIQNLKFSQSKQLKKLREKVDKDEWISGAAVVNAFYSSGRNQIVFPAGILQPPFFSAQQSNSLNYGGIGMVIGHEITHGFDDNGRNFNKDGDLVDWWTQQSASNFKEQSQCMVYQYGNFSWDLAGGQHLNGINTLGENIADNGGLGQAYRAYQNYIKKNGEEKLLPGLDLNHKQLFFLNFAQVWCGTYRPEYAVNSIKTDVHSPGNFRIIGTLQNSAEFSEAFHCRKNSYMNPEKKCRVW

pKi | Ki | SMILES
≥9.0 | – | Cn1nc(C(=O)N[C@H](Cc2ccc(-c3ccccc3)cc2)C[C@@H](O)C(=O)O)cc1C(=O)O [Example 15-5, 5-((1R,3R)-1-Biphenyl-4-ylmethyl-3-carboxy-3-hydroxypropylcarbamoyl)-2-methyl-2H-pyrazole-3-carboxylic acid]
– | 1.26 to 10 nM | COc1ccccc1C(=O)Nc1cc(C(=O)N[C@H](Cc2ccc(-c3ccccc3)cc2)C[C@@H](O)C(=O)O)n[nH]1 [Example 15-32, (2R,4R)-5-Biphenyl-4-yl-2-hydroxy-4-{[5-(2-methoxy-benzoylamino)-1H-pyrazole-3-carbonyl]-amino}-pentanoic acid]
– | 12.6 to 100 nM | CCOC(=O)Nc1cc(C(=O)N[C@H](Cc2ccc(-c3ccccc3)cc2)CC(O)C(=O)O)[nH]n1 (stereo partly drawn) [Example 15-93, (R)-5-Biphenyl-4-yl-4-[(5-ethoxycarbonylamino-2H-pyrazole-3-carbonyl)-amino]-2-hydroxy-pentanoic acid]
– | 1.26 to 10 nM | O=C(N[C@H](Cc1ccc(-c2ccccc2)cc1)CC(O)C(=O)O)c1ccc2[nH]nnc2c1 (stereo partly drawn) [Example 11-3, (R)-4-[(1H-Benzotriazole-5-carbonyl)amino]-5-biphenyl-4-yl-2-hydroxypentanoic acid]
≥9.0 | – | O=C(N[C@H](Cc1ccc(-c2ccccc2)cc1)C[C@H](O)C(=O)O)c1cc(C(=O)O)[nH]n1 [Example 2-C, 5-((1R,3S)-1-Biphenyl-4-ylmethyl-3-carboxy-3-hydroxypropylcarbamoyl)-2H-pyrazole-3-carboxylic Acid]
– | 12.6 to 100 nM | O=C(N[C@H](Cc1ccc(-c2ccccc2)cc1)C[C@@H](O)C(=O)O)c1cc(CN2CCOCC2)on1 [Example 12-19, (2R,4R)-5-Biphenyl-4-yl-2-hydroxy-4-[(5-morpholin-4-ylmethyl-isoxazole-3-carbonyl)-amino]-pentanoic acid]
≥9.0 | – | CNC(=O)c1cc(C(=O)N[C@H](Cc2ccc(-c3ccccc3)cc2)C[C@@H](O)C(=O)O)[nH]n1 [Example 15-60, (2R,4R)-5-Biphenyl-4-yl-2-hydroxy-4-[(5-methylcarbamoyl-2H-pyrazole-3-carbonyl)-amino]pentanoic acid]
≥9.0 | – | O=C(N[C@H](Cc1ccc(-c2cccc(Cl)c2)cc1)C[C@@H](O)C(=O)O)c1ccc2nnn(O)c2c1 [Example 18-3, (2R,4R)-5-(3′-Chlorobiphenyl-4-yl)-2-hydroxy-4-[(3-hydroxy-3H-benzotriazole-5-carbonyl)-amino]-pentanoic acid]
≥9.0 | – | O=C(N[C@H](Cc1ccc(-c2ccccc2)cc1)C[C@@H](O)C(=O)O)c1cc(-c2ccc(Cl)cc2Cl)[nH]n1 [Example 15-26, (2R,4R)-5-Biphenyl-4-yl-4-{[5-(2,4-dichlorophenyl)-1H-pyrazole-3-carbonyl]-amino}-2-hydroxy-pentanoic acid]
– | 1.26 to 10 nM | CC(C)(c1ccc(-c2ccccc2)cc1)[C@H](C[C@@H](O)C(=O)O)NC(=O)c1cn(O)nn1 [Example 25-2, (2R,4S)-5-Biphenyl-4-yl-2-hydroxy-4-[(1-hydroxy-1H-[1,2,3]triazole-4-carbonyl)-amino]-5-methyl-hexanoic acid]
≥9.0 | – | CC(C)(C)c1cc(C(=O)N[C@H](Cc2ccc(-c3cccc(Cl)c3)cc2)C[C@@H](O)C(=O)O)on1 [Example 18-14, (2R,4R)-4-[(3-tert-Butyl-isoxazole-5-carbonyl)-amino]-5-(3′-chloro-biphenyl-4-yl)-2-hydroxy-pentanoic acid]
≥9.0 | – | O=C(N[C@H](Cc1ccc(-c2ccccc2)cc1)C[C@@H](O)C(=O)O)c1cc(-c2cc(Cl)ccc2Cl)[nH]n1 [Example 15-27, (2R,4R)-5-Biphenyl-4-yl-4-{[5-(2,5-dichlorophenyl)-1H-pyrazole-3-carbonyl]-amino}-2-hydroxy-pentanoic acid]
– | 12.6 to 100 nM | O=C(N[C@H](Cc1ccc(-c2ccccc2)cc1)C[C@@H](O)C(=O)O)c1cc2n(n1)C[C@@H](O)COc1ccccc1-2 [Example 16-5, (2R,4R)-5-Biphenyl-4-yl-2-hydroxy-4-[((R)-8-hydroxy-10-oxa-5,6-diaza-tricyclo[9.4.0.02,6]pentadeca-1(15),2,4,11,13-pentaene-4-carbonyl)-amino]-pentanoic acid]
≥9.0 | – | CC(C)(c1ccc(-c2ccccc2)cc1)[C@H](C[C@@H](O)C(=O)O)NC(=O)c1cc(O)no1 [Example 25-3, (2R,4S)-5-Biphenyl-4-yl-2-hydroxy-4-[(3-hydroxy-isoxazole-5-carbonyl)-amino]-5-methyl-hexanoic acid]
– | 1.26 to 10 nM | C[C@H](O)c1cc(C(=O)N[C@H](Cc2ccc(-c3ccccc3)cc2)C[C@@H](O)C(=O)O)[nH]n1 [Example 15-109, (2R,4R)-5-Biphenyl-4-yl-2-hydroxy-4-{[5-((S)-1-hydroxyethyl)-2H-pyrazole-3-carbonyl]amino}pentanoic acid]
– | 12.6 to 100 nM | COc1cccc(Cn2nc(C(=O)N[C@H](Cc3ccc(-c4ccccc4)cc3)CC(O)C(=O)O)cc2C(=O)O)c1 (stereo partly drawn) [Example 15-17, 5-((R)-1-Biphenyl-4-ylmethyl-3-carboxy-3-hydroxy-propylcarbamoyl)-2-(3-methoxy-benzyl)-2H-pyrazole-3-carboxylic acid]

pKi | Ki | SMILES
≥9.0 | – | COc1ccccc1-c1cc(C(=O)N[C@H](Cc2ccc(-c3ccccc3)cc2)C[C@@H](O)C(=O)O)on1 [Example 12-13, (2R,4R)-5-Biphenyl-4-yl-2-hydroxy-4-{[3-(2-methoxy-phenyl)-isoxazole-5-carbonyl]-amino}-pentanoic acid]
≥9.0 | – | O=C(N[C@H](Cc1ccc(-c2ccccc2)cc1)C[C@@H](O)C(=O)O)c1cc(O)no1 [Example 7-B, (2R,4R)-5-Biphenyl-4-yl-2-hydroxy-4-[(3-hydroxyisoxazole-5-carbonyl)amino]pentanoic Acid]
– | 12.6 to 100 nM | O=C1CCC(C(=O)N[C@H](Cc2ccc(-c3ccccc3)cc2)CC(O)C(=O)O)=NN1 (stereo partly drawn) [Example 13-6, (R)-5-Biphenyl-4-yl-2-hydroxy-4-[(6-oxo-1,4,5,6-tetrahydro-pyridazine-3-carbonyl)-amino]-pentanoic acid]
≥9.0 | – | O=C(N[C@H](Cc1ccc(-c2cccc(Cl)c2)cc1)C[C@@H](O)C(=O)O)c1nn(-c2ccccc2Cl)c(=O)[nH]1 [Example 18-43, (2R,4R)-5-(3′-Chloro-biphenyl-4-yl)-4-{[1-(2-chloro-phenyl)-5-oxo-4,5-dihydro-1H-[1,2,4]triazole-3-carbonyl]-amino}-2-hydroxy-pentanoic acid]
– | 1.26 to 10 nM | O=C(N[C@H](Cc1ccc(-c2ccccc2)cc1)CC(O)C(=O)O)c1cc(-c2ccc(Cl)cc2)[nH]n1 (stereo partly drawn) [Example 15-40, (R)-5-Biphenyl-4-yl-4-{[5-(4-chlorophenyl)-1H-pyrazole-3-carbonyl]amino}-2-hydroxy-pentanoic acid]
≥9.0 | – | O=C(N[C@H](Cc1ccc(-c2ccccc2)cc1)C[C@@H](O)C(=O)O)c1cc(-c2cccc(F)c2)no1 [Example 12-8, (2R,4R)-5-Biphenyl-4-yl-4-{[3-(3-fluorophenyl)-isoxazole-5-carbonyl]-amino}-2-hydroxy-pentanoic acid]
≥9.0 | – | O=C(N[C@H](Cc1ccc(-c2cccc(Cl)c2)cc1)C[C@@H](O)C(=O)O)c1c[nH]nn1 [Example 18-2, (2R,4R)-5-(3′-Chlorobiphenyl-4-yl)-2-hydroxy-4-[(1H-[1,2,3]triazole-4-carbonyl)-amino]-pentanoic acid]
≥9.0 | – | O=C(N[C@H](Cc1ccc(-c2ccccc2)cc1)C[C@@H](O)C(=O)O)c1cc(C(=O)N2CCC(O)CC2)n[nH]1 [Example 15-48, (2R,4R)-5-Biphenyl-4-yl-2-hydroxy-4-{[5-(4-hydroxypiperidine-1-carbonyl)-2H-pyrazole-3-carbonyl]-amino}-pentanoic acid]
≥9.0 | – | O=C(N[C@H](Cc1ccc(-c2cc(Cl)ccc2F)cc1)C[C@@H](O)C(=O)O)c1nn(-c2ccccc2)c(=O)[nH]1 [Example 19-20, (2R,4R)-5-(5′-Chloro-2′-fluoro-biphenyl-4-yl)-2-hydroxy-4-[(5-oxo-1-phenyl-4,5-dihydro-1H-[1,2,4]triazole-3-carbonyl)-amino]-pentanoic acid]
– | 1.26 to 10 nM | O=C(N[C@H](Cc1ccc(-c2ccccc2)cc1)C[C@@H](O)C(=O)O)c1cc(-c2ccc(Cl)c(Cl)c2)no1 [Example 12-12, (2R,4R)-5-Biphenyl-4-yl-4-{[3-(3,4-dichlorophenyl)-isoxazole-5-carbonyl]-amino}-2-hydroxy-pentanoic acid]
– | 1.26 to 10 nM | O=C(N[C@H](Cc1ccc(-c2ccccc2)cc1)CC(O)C(=O)O)c1cc(-c2ccco2)[nH]n1 (stereo partly drawn) [Example 15-37, (R)-5-Biphenyl-4-yl-4-[(5-furan-2-yl-1H-pyrazole-3-carbonyl)amino]-2-hydroxy-pentanoic acid]
– | 1.26 to 10 nM | COc1cc(C(=O)N[C@H](Cc2ccc(-c3ccccc3)cc2)C[C@@H](O)C(=O)O)on1 [Example 12-3, (2R,4R)-5-Biphenyl-4-yl-2-hydroxy-4-[(3-methoxyisoxazole-5-carbonyl)amino]-pentanoic acid]
– | ≤ 1 nM | O=C(N[C@H](Cc1ccc(-c2cccc(Cl)c2)cc1)C[C@@H](O)C(=O)O)c1cn(O)nn1 [Example 17-A, (2R,4R)-5-(3′-Chlorobiphenyl-4-yl)-2-hydroxy-4-[(1-hydroxy-1H-[1,2,3]triazole-4-carbonyl)-amino]pentanoic Acid]
– | 1.26 to 10 nM | O=C(N[C@H](Cc1ccc(-c2ccccc2)cc1)CC(O)C(=O)O)c1cc(-c2cnccn2)[nH]n1 (stereo partly drawn) [Example 15-22, (R)-5-Biphenyl-4-yl-2-hydroxy-4-[(5-pyrazin-2-yl-1H-pyrazole-3-carbonyl)amino]-pentanoic acid]
– | 12.6 to 100 nM | O=C(N[C@H](Cc1ccc(-c2ccccc2)cc1)CC(O)C(=O)O)c1ccc(O)nn1 (stereo partly drawn) [Example 13-5, (R)-5-Biphenyl-4-yl-2-hydroxy-4-[(6-hydroxypyridazine-3-carbonyl)-amino]-pentanoic acid]

SMILES | pKi | Ki
O=C(NC(Cc1ccc(-c2ccccc2)cc1)C[C@@H](O)C(=O)O)c1cc(-c2ccc(Cl)cc2)n[nH]1 (some centres unmarked) [Example 15-83] | ≥9.0 | –
